BindingDB's records for doi:10.7270/Q2TH8K43 (Burnham Center For Chemical Genomics, 2010)

The compounds below were run against Nucleotide-binding oligomerization domain-containing protein 2 (Homo sapiens, UniProt Q9HC29) (assay: PubChem AID 2334).
Nucleotide-binding oligomerization domain-containing protein 2, sequence (Q9HC29 whole entry, the tested form may be a part): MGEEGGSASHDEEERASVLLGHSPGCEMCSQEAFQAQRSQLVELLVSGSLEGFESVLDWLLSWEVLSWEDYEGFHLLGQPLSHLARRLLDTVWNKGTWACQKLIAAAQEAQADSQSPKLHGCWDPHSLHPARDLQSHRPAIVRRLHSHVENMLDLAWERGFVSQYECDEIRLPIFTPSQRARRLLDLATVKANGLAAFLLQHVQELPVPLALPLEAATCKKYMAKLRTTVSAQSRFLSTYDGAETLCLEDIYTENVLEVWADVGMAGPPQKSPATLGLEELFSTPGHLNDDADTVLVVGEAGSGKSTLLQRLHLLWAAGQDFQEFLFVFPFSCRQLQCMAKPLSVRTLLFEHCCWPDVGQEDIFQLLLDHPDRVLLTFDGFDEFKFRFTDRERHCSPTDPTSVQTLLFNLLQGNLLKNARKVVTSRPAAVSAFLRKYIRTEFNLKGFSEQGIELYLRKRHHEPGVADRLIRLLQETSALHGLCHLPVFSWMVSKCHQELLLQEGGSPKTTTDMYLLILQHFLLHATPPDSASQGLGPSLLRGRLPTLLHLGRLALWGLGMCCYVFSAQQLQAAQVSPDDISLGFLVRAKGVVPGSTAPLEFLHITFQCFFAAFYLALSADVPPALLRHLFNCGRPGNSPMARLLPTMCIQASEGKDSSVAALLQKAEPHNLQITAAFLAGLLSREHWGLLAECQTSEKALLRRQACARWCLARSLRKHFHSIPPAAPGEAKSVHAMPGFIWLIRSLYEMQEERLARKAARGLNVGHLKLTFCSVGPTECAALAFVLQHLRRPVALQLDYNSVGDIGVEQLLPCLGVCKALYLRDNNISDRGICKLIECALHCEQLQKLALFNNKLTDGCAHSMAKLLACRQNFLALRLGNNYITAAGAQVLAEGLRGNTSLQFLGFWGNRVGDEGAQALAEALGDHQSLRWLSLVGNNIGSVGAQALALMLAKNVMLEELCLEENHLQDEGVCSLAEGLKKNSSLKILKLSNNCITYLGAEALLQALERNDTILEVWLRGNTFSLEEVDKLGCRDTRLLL

SMILES	IC50
Cc1ccc(C)c(SCC(=O)OCC(=O)C(C#N)c2nc3ccccc3[nH]2)c1 (stereo unspecified) [MLS000392255]	> 20 µM
N#CC(C(=O)COC(=O)CSc1ccc(Cl)cc1)c1nc2ccccc2[nH]1 (stereo unspecified) [MLS-0208254.0001]	> 20 µM
Cc1cc(SCC(=O)OCC(=O)C(C#N)c2nc3ccccc3[nH]2)c(C)cc1Br (stereo unspecified)	> 20 µM
Cc1ccc(O)c(/N=C/C2=CC(Cc3ccccc3)C=C([N+](=O)[O-])C2=O)c1 (stereo unspecified) [(6E)-6-[[(5-methyl-2-oxidanyl-phenyl)amino]methylidene]-2-nitro-4-(phenylmethyl)cyclohexa-2,4-dien-1-one]	> 20 µM
Cc1cc(Br)ccc1SCC(=O)OCC(=O)C(C#N)c1nc2ccccc2[nH]1 (stereo unspecified) [2-[(4-bromo-2-methylphenyl)thio]acetic acid [3-cyano-3-(1,3-dihydrobenzimidazol-2-ylidene)-2-oxopropyl] ester]	> 20 µM
N#CC(C(=O)COC(=O)CSc1ccc2ccccc2c1)c1nc2ccccc2[nH]1 (stereo unspecified) [[3-cyano-3-(1,3-dihydrobenzimidazol-2-ylidene)-2-oxopropyl] 2-naphthalen-2-ylsulfanylacetate]	> 20 µM
